Measured values reported in ChEMBL document CHEMBL4483862, “Open-source discovery of chemical leads for next-generation chemoprotective antimalarials” (2018).
pIC50: −log10 of the molar value.

System: Plasmodium berghei
Assay: Luciferase/luciferin-expressing antifolate-resistant parasites were used to infect a culture of HepG2 cells that were pre-incubated with compounds. Infected hepatocytes emit light due to the luciferase reaction. Assay results are presented as the percent inhibition of light emission compared to control. […]
Assay type: functional
Conditions: sporozoite; for IC90: read-out: LUCIFERASE INFECTION ASSAY - IC90
[1] = read-out: LUCIFERASE INFECTION ASSAY - IC50

SMILES | IC90 [µM] | pIC50 [1] | further results
CC(C)n1ncc2cc(NC(=O)C3=Cc4ccccc4OC3)cnc21 | > 10 |  | pIC50 (PBLUC_HILL_SLOPE 12, PBLUC_R_SQUARED 0.534, read-out: LUCIFERASE INFECTION ASSAY - IC50): 5.03
COc1ccc(OCc2cc(C(=O)NCc3ccccc3)c(C)o2)cc1 | > 10 |  | pIC50 (FFLUC_HILL_SLOPE 16.5, FFLUC_R_SQUARED 0.199, HEPG2TOX_HILL_SLOPE 9.38, HEPG2TOX_R_SQUARED 0.316, read-out: LUCIFERASE INFECTION ASSAY - IC50): < 5.00
C=CCn1c(SCC(=O)Nc2scc(-c3ccc(C(C)(C)C)cc3)c2C(=O)OCC)nc2sc3c(c2c1=O)CCC3 | > 10 | < 5.00 | 
O=C(NC1CCSc2ccc(Cl)cc21)c1cc(Br)c[nH]1 (stereo not drawn) | > 10 |  | pIC50 (FFLUC_HILL_SLOPE 30.3, FFLUC_R_SQUARED 0.512, PBLUC_HILL_SLOPE 1.67, PBLUC_R_SQUARED 0.28, read-out: LUCIFERASE INFECTION ASSAY - IC50): 5.24
O=c1c2ccccc2oc2nc(-c3ccccc3)n(Cc3ccccc3)c(=O)c12 | 4.41 |  | pIC50 (PBLUC_HILL_SLOPE 10.1, PBLUC_R_SQUARED 0.696, read-out: LUCIFERASE INFECTION ASSAY - IC50): 5.45
O=C(COC(=O)c1cccnc1Cl)NCCc1ccc(F)cc1 | > 10 | < 5.00 | 
O=C(NNC(=O)C12CC3CC(CC(C3)C1)C2)c1nn(-c2ccccc2)cc1O | 3.89 | 5.49 | 
Cc1sc2nc(-c3cccs3)nc(N3CCN(C(=O)c4ccccc4)CC3)c2c1C | > 10 |  | pIC50 (PBLUC_HILL_SLOPE 1.78, PBLUC_R_SQUARED 0.529, read-out: LUCIFERASE INFECTION ASSAY - IC50): 5.31
CCc1sc(C(=O)Nc2nc(-c3ccc(CNC(C)=O)cc3)cs2)cc1C | > 10 | < 5.00 | 
O=C(Nc1ccc2c(c1)nc1n2CCCCC1)C1CC=CCC1 (stereo not drawn) | > 10 | < 5.00 | 
C=CCN(CC=C)C(CNc1ccc2nnc(C(F)(F)F)n2n1)C(C)C (stereo not drawn) | > 10 |  | pIC50 (PBLUC_HILL_SLOPE 8.1, PBLUC_R_SQUARED 0.171, read-out: LUCIFERASE INFECTION ASSAY - IC50): 5.08
O=C(Nc1nc2ccccn2c1C(=O)NC1CCCCC1)c1ccccc1Cl | 8.12 |  | pIC50 (FFLUC_HILL_SLOPE 10.6, FFLUC_R_SQUARED 0.389, HEPG2TOX_HILL_SLOPE 7.19, HEPG2TOX_R_SQUARED 0.725, PBLUC_HILL_SLOPE 14.8, PBLUC_R_SQUARED 0.156, read-out: LUCIFERASE INFECTION ASSAY - IC50): 5.15
CC(C)Cc1nc(N2CCNCC2)c(C#N)c2c1CCCC2 | > 11.1 |  | pIC50 (PBLUC_HILL_SLOPE 17, PBLUC_R_SQUARED 0.257, read-out: LUCIFERASE INFECTION ASSAY - IC50): 5.00
CN(Cc1cc(=O)n2c([nH]c3ccccc32)c1C#N)Cc1c(F)cccc1Cl | 6.11 |  | pIC50 (HEPG2TOX_HILL_SLOPE 0.22, HEPG2TOX_R_SQUARED 0.757, PBLUC_HILL_SLOPE 1.9, PBLUC_R_SQUARED 0.518, read-out: LUCIFERASE INFECTION ASSAY - IC50): 5.72
O=C(Nc1ccc(-n2cnc3ccccc32)nc1)c1ccc(S(=O)(=O)C(F)F)cc1 | > 10 |  | pIC50 (FFLUC_HILL_SLOPE 3, FFLUC_R_SQUARED 0.28, HEPG2TOX_HILL_SLOPE 9.7, HEPG2TOX_R_SQUARED 0.823, PBLUC_HILL_SLOPE 15.6, 20.0, PBLUC_R_SQUARED 0.113, 0.608, read-out: LUCIFERASE INFECTION ASSAY - IC50): 5.04
COc1ccc(N2CCN(CCCNS(=O)(=O)c3ccc(Cl)cc3C(F)(F)F)CC2)cc1 | > 10 |  | pIC50 (PBLUC_HILL_SLOPE 0.0792, 17.3, PBLUC_R_SQUARED 0.0344, 0.317, read-out: LUCIFERASE INFECTION ASSAY - IC50): 5.01
Cc1sc2nc3c4ccccc4c(NCc4ccccc4CN4CCOCC4)nn3c(=O)c2c1C | > 10 |  | pIC50 (HEPG2TOX_HILL_SLOPE 7.8, HEPG2TOX_R_SQUARED 0.205, PBLUC_HILL_SLOPE 3, PBLUC_R_SQUARED 0.458, read-out: LUCIFERASE INFECTION ASSAY - IC50): 5.23
Cn1c(N)c(C(=O)c2cccc(S(=O)(=O)N3CCc4ccccc43)c2)c(=O)[nH]c1=O | > 10 |  | pIC50 (PBLUC_HILL_SLOPE 10, PBLUC_R_SQUARED 0.0166, read-out: LUCIFERASE INFECTION ASSAY - IC50): < 5.00
CCN(CC)c1ccc(NC(=S)NC(=O)c2ccco2)cc1S(=O)(=O)Nc1ccc(OC)cc1 | > 10 | < 5.00 | 
O=C(Cc1c(F)cccc1Cl)Nc1ccccc1-c1nc2ccccc2[nH]1 | 7.35 | 5.76 | 
CCCc1ccc(-c2nc(NC(=O)CCc3ccsc3)sc2C)cc1 | > 10 | < 5.00 | 
COc1ccc2c(COC(=O)c3[nH]c(C)c(C(C)=O)c3C)cc(=O)oc2c1 | > 10 | < 5.00 | 

SMILES | IC90 [µM] | pIC50 [1] | further results
CC(Nc1ccc(N(C)C(C)C)c(F)c1)C(=O)N1CCCC1 (stereo not drawn) | 9.36 |  | pIC50 (PBLUC_HILL_SLOPE 12.8, PBLUC_R_SQUARED 0.621, read-out: LUCIFERASE INFECTION ASSAY - IC50): 5.10
CCOC(=O)C1=C(COC(=O)c2oc3ccc(OC)cc3c2C)NC(=O)NC1 | > 10 |  | pIC50 (HEPG2TOX_HILL_SLOPE 3.23, HEPG2TOX_R_SQUARED 0.736, PBLUC_HILL_SLOPE 1.66, PBLUC_R_SQUARED 0.334, read-out: LUCIFERASE INFECTION ASSAY - IC50): < 5.00
CCC(C)c1ccc(NC(=O)Cc2ccc(NS(=O)(=O)c3ccc(Cl)c(Cl)c3)cc2)cc1 (stereo not drawn) | > 10 |  | pIC50 (PBLUC_HILL_SLOPE 11.4, PBLUC_R_SQUARED 0.218, read-out: LUCIFERASE INFECTION ASSAY - IC50): 5.02
COc1cc(Nc2nccc3nc(-c4ccc5c(c4)OCCO5)[nH]c23)cc(OC)c1OC | 1.67 | 6.31 | 
N#Cc1c(Cl)c2ccccc2[nH]c1=O | > 16.1 | 4.83 | 
CCCCn1nnnc1CSc1nnc(-c2ccccc2F)n1Cc1ccccc1 | > 10 | < 5.00 | 
O=C(c1cc2cc(Cl)ccc2o1)N1CCN(Cc2ccc3c(c2)OCO3)CC1 | > 8.27 | < 5.08 | 
COc1ccc(CNc2nc3cnc(Nc4ccc(F)c(Cl)c4)cc3n2C)cc1OC | > 10 | < 5.00 | 
CC(=O)c1c(C)[nH]c(C(=O)OCC(=O)NC2CCCc3ccccc32)c1C (stereo not drawn) | > 10 |  | pIC50 (HEPG2TOX_HILL_SLOPE 1.17, HEPG2TOX_R_SQUARED 0.444, read-out: LUCIFERASE INFECTION ASSAY - IC50): < 5.00
Cn1c(Cl)cnc1CN1CCN(CC(=O)Nc2ccccc2Cl)CC1 | > 10 | < 5.00 | 
COc1ccc(C(=O)Nc2ccc(Oc3cc(C(F)(F)F)cc(C(F)(F)F)c3)cc2)cc1 | 2.35 | 6.31 | 
O=C(NC1CC1)c1ccc(CN(C2CC2)S(=O)(=O)c2cccs2)cc1 | > 10 |  | pIC50 (PBLUC_HILL_SLOPE 4.12, PBLUC_R_SQUARED 0.383, read-out: LUCIFERASE INFECTION ASSAY - IC50): 5.10
CCN(Cc1ccc(Cl)s1)C(=O)c1ccc(NC(=O)c2ccco2)cc1 | > 10 |  | pIC50 (PBLUC_HILL_SLOPE 2.47, PBLUC_R_SQUARED 0.568, read-out: LUCIFERASE INFECTION ASSAY - IC50): 5.26
CCOC(=O)Cc1nn(Cc2nc(-c3ccc4c(c3)C(C)(C)CCC4(C)C)cs2)c(=O)c2ccccc12 | 2.02 |  | pIC50 (FFLUC_HILL_SLOPE 16.2, FFLUC_R_SQUARED 0.167, PBLUC_HILL_SLOPE 1.27, PBLUC_R_SQUARED 0.666, read-out: LUCIFERASE INFECTION ASSAY - IC50): 6.45
Clc1cccc(Cl)c1/C=C/c1cc[nH]n1 | > 13.8 |  | pIC50 (HEPG2TOX_HILL_SLOPE 3.46, HEPG2TOX_R_SQUARED 0.979, PBLUC_HILL_SLOPE 12.7, PBLUC_R_SQUARED 0.349, read-out: LUCIFERASE INFECTION ASSAY - IC50): 4.92
CCCCC(CC)C[n+]1c(C)cc(C=C2Sc3ccccc3N2CC)cc1C (stereo not drawn) | 0.111 |  | pIC50 (HEPG2TOX_HILL_SLOPE 1.26, HEPG2TOX_R_SQUARED 0.976, PBLUC_HILL_SLOPE 1.65, PBLUC_R_SQUARED 0.944, read-out: LUCIFERASE INFECTION ASSAY - IC50): 7.53
CCCNC(=O)c1c(NC(=O)c2ccc(CC)cc2)nc2ccc(C)cn12 | 3.22 |  | pIC50 (HEPG2TOX_HILL_SLOPE 14.6, HEPG2TOX_R_SQUARED 0.266, PBLUC_HILL_SLOPE 22.2, PBLUC_R_SQUARED 0.534, read-out: LUCIFERASE INFECTION ASSAY - IC50): 5.53
CC(C)NC(=O)c1c(NC(=O)c2cc(F)c(Cl)cc2F)nc2ccccn12 | 1.42 |  | pIC50 (HEPG2TOX_HILL_SLOPE 0.89, HEPG2TOX_R_SQUARED 0.947, PBLUC_HILL_SLOPE 3.47, PBLUC_R_SQUARED 0.71, read-out: LUCIFERASE INFECTION ASSAY - IC50): 6.12
C=CCn1c(COc2ccc(C(C)(C)C)cc2)nnc1SCC(=O)N(C)C1CCCCC1 | > 10 |  | pIC50 (HEPG2TOX_HILL_SLOPE 8.72, HEPG2TOX_R_SQUARED 0.783, PBLUC_HILL_SLOPE 29.5, PBLUC_R_SQUARED 0.113, read-out: LUCIFERASE INFECTION ASSAY - IC50): 5.02
O=C(c1ccccc1)C1CCN(C(=O)/C=C/c2cccc(Cl)c2Cl)CC1 | > 10 |  | pIC50 (PBLUC_HILL_SLOPE 1.75, PBLUC_R_SQUARED 0.122, read-out: LUCIFERASE INFECTION ASSAY - IC50): < 5.00
Clc1ccc(-n2nnnc2Sc2ncnc3sc4c(c23)CCC4)cc1 | > 10 |  | pIC50 (FFLUC_HILL_SLOPE 0.273, FFLUC_R_SQUARED 0.315, read-out: LUCIFERASE INFECTION ASSAY - IC50): < 5.00
CNc1nc2cnc(Nc3cc(C(F)(F)F)ccc3F)cc2n1Cc1ccco1 | > 10 |  | pIC50 (HEPG2TOX_HILL_SLOPE 10.6, HEPG2TOX_R_SQUARED 0.165, read-out: LUCIFERASE INFECTION ASSAY - IC50): < 5.00
